Reference: patent EP3351262A1, “CURAGLUTIDE FOR IN TREATMENT OF PREDIABETES, DIABETES, OBESITY AND METABOLIC DISEASES ASSOCIATED THERETO” (Istanbul Universitesi Rektorlugu, priority 2016, dated 2018)
Several values for one entry are separate records, joined by “and”; a condition that tells them apart may be missing. Equal entries are not always repeated.

Assays:
Assay type in all cases: cell-based, rat
LC3-II = assay: Western blotting of autophagy marker LC3-II in cell lysates; settings: for amount of intracellular LC3-II: control 0.44±0.00; for LC3-II amounts: INS-1 cells
Method: (§1) Trypsin is applied to 75 cm^2 flask containing INS-1 […] beta cells and it is centrifuged in 1500 rpm for 15 minutes. According to the density of pellet formed after centrifuge, it is centrifuged at 4 °C in 1500 rpm for 5 minutes by providing the washing with pipetting with PBS and transferring into 2 ml eppendorf. The supernatant was removed, lysis buffer was added according to the density of pellet and pipetting is performed carefully. It was left for 30 minutes on the ice by vortexing in every 10 minutes. Then the cells were allowed to lysis by ultrasonication for 10 seconds for 5 times, keeping on ice for 10 seconds and they were centrifuged at 4 °C in 13000 rpm for 10 minutes. The supernatant occurred was taken to 0,2 ml eppendorf tubes, and they were taken to -86 °C temperature. These operations were repeated for 3 times for each of the control and experiment groups.
(§2) Bradford method was used in order to determine the protein content. First, a standard curve was formed by using BSA (bovine serum albumin) having a concentration of 1.46 mg/ml. This curve was prepared as following: Bradford solution was added into 80 µg/ml, 40 µg/ml, 20 µg/ml, 10 µg/ml BSA, their absorbance was measured in 595 nm, it was diluted in a way that the lysates are 1/100 and 160 µl was taken, their absorbance in the same wavelengths was determined. After absorbance/concentration graph of the standards was obtained, the concentrations of the samples whose concentrations are […] were determined by using the slope equation of this graph.
(§3) Protein bands separated by electrophoresis in gel were transferred from the gel into nitrocellulose membrane. After membrane transferring operation, transfer efficiency was controlled for 15 minutes by using Ponceau S painting solution.
(§4) The membrane wherein the proteins were transferred, was incubated at room temperature for 1 hour with blocking solution prepared with skimmed milk powder. The membranes were incubated with primary antibodies suitable diluting ratios (Table 1) for 1 night at +4 °C, following the blocking operation. Following this operation, washed membranes were treated with peroxidase marked goat anti-rabbit secondary IgGs (Santa Cruz, CA, USA, sc-2004) at room temperature for 1 hour. Following the treatment with secondary antibodies of membranes, they were washed with washing solution and shaken with pure water. Then, the specific protein bands were monitored by KodakGL1500 gel monitoring system, by chemiluminescence method using Western Blotting Luminol Reagent (Santa Cruz, CA, USA, sc-2048) chemiluminescence substrate. Their densitometric analysis were performed by "Kodak Molecular Imaging Systems" software. The statistical analysis between the bands were performed by normalizing the band densities of the protein samples whose densitometric analysis were performed, to the density of β-actin protein. Table 1: The primary antibodies used in Western blotting method, the dilution ratios and periods thereof
In order to determine the autophagic dose, LC3-II protein amounts which are the autophagic markers were determined by western blotting method by obtaining lysate from the cells on which 0.75, 1, 1.75, 2, 2.5 and 3 mM palmitic acid was applied. The graph obtained from western blotting bands and the calculation performed as a result of the analysis of these bands is shown in Figure 2.
Intracellular LC3 protein amount was observed by western blotting in order to examine the effect of curaglutide on autophagy stimulated by 1,75 mM palmitic acid in INS-1 beta cells.

p53 = assay: Western blotting of apoptotic protein p53 in cell lysates; settings: for amount of intracellular p53: control 1.06±0.00; for p-53 amounts: INS-1 cells, normalized to β-actin
Method: as §1, §2, §3, §4
(§5) In order to determine the apoptosis dose, p 53, cytochrome-c and active caspase-3 protein amounts were determined by western blotting method by obtaining lysate from the cells in which 0.75, 1,1.75,2,2.5 and 3 mM palmitic acid were applied. The graph obtained from western blotting bands and the calculation performed as a result of the analysis of these bands is shown in Figure 3.
(§6) The amount of intracellular proteins such as p53, cytochrome-c and active caspase-3 were observed by western blotting in order to examine the effect of curaglutide on apoptosis stimulated by 2 mM palmitic acid in INS-1 beta cells.

cytochrome-c = assay: Western blotting of apoptotic protein cytochrome-c in cell lysates; settings: for amount of cytochrome-c: control 1.02±0.02; for cytochrome-c amounts: INS-1 cells, normalized to β-actin
Method: as §1, §2, §3, §4, §5, §6

active caspase-3 = assay: Western blotting of apoptotic protein active caspase-3 in cell lysates; settings: for amount of active caspase-3: control 1.07±0.01; for active caspase-3 amounts: INS-1 cells, normalized to β-actin
Method: as §1, §2, §3, §4, §5, §6

[1] = 10 nM curaglutide as curative agent, 2 mM palmitic acid (apoptotic dose)
[2] = 10 nM curaglutide as protector against 2 mM palmitic acid (apoptotic dose)

## CC[C@H](C)[C@H](NC(=O)[C@H](Cc1ccccc1)NC(=O)[C@H](CCC(=O)O)NC(=O)[C@H](CCCCN)NC(=O)[C@H](C)NC(=O)[C@H](C)NC(=O)[C@H](CCC(N)=O)NC(=O)CNC(=O)[C@H](CCC(=O)O)NC(=O)[C@H](CC(C)C)NC(=O)[C@H](Cc1ccc(O)cc1)NC(=O)[C@H](CO)NC(=O)[C@H](CO)NC(=O)[C@@H](NC(=O)[C@H](CC(=O)O)NC(=O)[C@H](CO)NC(=O)[C@@H](NC(=O)[C@H](Cc1ccccc1)NC(=O)[C@@H](NC(=O)CNC(=O)[C@H](CCC(=O)O)NC(=O)[C@H](C)NC(=O)[C@H](Cc1c[nH]cn1)NC(C)=O)[C@@H](C)O)[C@@H](C)O)C(C)C)C(=O)N[C@@H](C)C(=O)N[C@@H](Cc1c[nH]c2ccccc12)C(=O)N[C@@H](CC(C)C)C(=O)N[C@H](C(=O)N[C@@H](CCCCN)C(N)=O)C(C)C [curaglutide]
LC3-II; 10 nM curaglutide as curative agent, 1.75 mM palmitic acid (autophagic dose)
  amount of intracellular LC3-II: 0.32±0.00
LC3-II; 10 nM curaglutide as protector, 1.75 mM palmitic acid (autophagic dose)
  amount of intracellular LC3-II: 0.29±0.00
p53; [1]
  amount of intracellular p53: 0.65±0.13
p53; [2]
  amount of intracellular p53: 0.54±0.24
cytochrome-c; [1]
  amount of cytochrome-c: 0.67±0.07
cytochrome-c; [2]
  amount of cytochrome-c: 0.80±0.10
Active caspase-3; [1]
  amount of active caspase-3: 0.54±0.00
Active caspase-3; [2]
  amount of active caspase-3: 0.67±0.00

## CCCCCCCCCCCCCCCC(=O)O [palmitic acid]
LC3-II; 0.75 mM palmitic acid, band density normalized to β-actin, control 0.50±0.01
  LC3-II amounts: 0.60±0.00
LC3-II; 1 mM palmitic acid, band density normalized to β-actin, control 0.50±0.01
  LC3-II amounts: 0.60±0.00
LC3-II; 1.75 mM palmitic acid (autophagic dose), normalized to β-actin, control 0.50±0.01 / 0.44±0.00
  LC3-II amounts: 0.70±0.03 and 0.70±0.01
LC3-II; 2 mM palmitic acid, band density normalized to β-actin, control 0.50±0.01
  LC3-II amounts: 0.52±0.02
LC3-II; 2.5 mM palmitic acid, band density normalized to β-actin, control 0.50±0.01
  LC3-II amounts: 0.50±0.00
LC3-II; 3 mM palmitic acid, band density normalized to β-actin, control 0.50±0.01
  LC3-II amounts: 0.49±0.01
p53; 0.75 mM palmitic acid, control 1.04±0.00
  p-53 amounts: 1.1±0.00
p53; 1 mM palmitic acid, control 1.04±0.00
  p-53 amounts: 1.14±0.00
p53; 1.75 mM palmitic acid, control 1.04±0.00
  p-53 amounts: 1.16±0.05
p53; 2 mM palmitic acid (apoptotic dose), control 1.04±0.00 / 1.06±0.00
  p-53 amounts: 1.3±0.02 and 1.31±0.02
p53; 2.5 mM palmitic acid, control 1.04±0.00
  p-53 amounts: 1.14±0.06
p53; 3 mM palmitic acid, control 1.04±0.00
  p-53 amounts: 1.03±0.00
cytochrome-c; 0.75 mM palmitic acid, control 1.05±0.02
  cytochrome-c amounts: 1.07±0.02
cytochrome-c; 1 mM palmitic acid, control 1.05±0.02
  cytochrome-c amounts: 1.06±0.01
cytochrome-c; 1.75 mM palmitic acid, control 1.05±0.02
  cytochrome-c amounts: 1.07±0.05
cytochrome-c; 2 mM palmitic acid (apoptotic dose), control 1.05±0.02 / 1.02±0.02
  cytochrome-c amounts: 1.23±0.00 and 1.22±0.00
cytochrome-c; 2.5 mM palmitic acid, control 1.05±0.02
  cytochrome-c amounts: 1.11±0.04
cytochrome-c; 3 mM palmitic acid, control 1.05±0.02
  cytochrome-c amounts: 1.09±0.02
Active caspase-3; 0.75 mM palmitic acid, control 1.08±0.00
  active caspase-3 amounts: 1.03±0.03
Active caspase-3; 1 mM palmitic acid, control 1.08±0.00
  active caspase-3 amounts: 1.03±0.00
Active caspase-3; 1.75 mM palmitic acid, control 1.08±0.00
  active caspase-3 amounts: 1.02±0.05
Active caspase-3; 2 mM palmitic acid (apoptotic dose), control 1.08±0.00 / 1.07±0.01
  active caspase-3 amounts: 1.26±0.00 and 1.22±0.00
Active caspase-3; 2.5 mM palmitic acid, control 1.08±0.00
  active caspase-3 amounts: 1.15±0.03
Active caspase-3; 3 mM palmitic acid, control 1.08±0.00
  active caspase-3 amounts: 1.06±0.00
